Results reported in patent publication US12661353B2, “SPT5 inhibitors and uses thereof” (Yeda Research and Development Co. Ltd., priority 2020, dated 2026).

Experiments:
TNFα-induced IL6 mRNA = test: Dose-response on TNFα-induced IL6 mRNA levels; type: cell-based, human; conditions: read-out: IC50, inflammatory gene inhibition (TNFα-induced transcription, FIG. 3D)
Method: Bars represent the mean of at least 3±SEM independent experiments. The asterisks denote statistical significance differences relative to DMSO+TNFα control according to Student's t tests (typically one tailed, paired): *p<0.05; **p<0.01; ***p<0.005; ****p<0.001. […] Shown are mRNA levels of A20 (normalized to GAPDH) in Hela cells treated with SPI-21 and TNFα and incubated with actinomycin D for the indicated time points, as determined by real-time qPCR. The data points present the mean of 3±SEM independent experiments. […] Shown are levels of mature and immature transcripts in cells incubated for 1 hour with DMSO (vehicle control) or 50 μM of SPI-21 or SPI-18 followed by treatment with TNFα for an additional one hour, as determined by real-time qPCR using primers spanning exons 3 and 4 (mature, black arrows shown in the scheme of G, SEQ ID NOs: 47 and 48) or intron 1 and exon 2 (immature, red arrows shown in the scheme of G, SEQ ID NOs: 49 and 50). […] DMSO (vehicle control), SPI-21 or SPI-18 treated cells were induced by TNFα for the indicated times and the levels of IκBα and β-Tubulin proteins were analyzed by western blot as indicated. […] The occupancy of the A20 gene was analyzed by qPCR using primers from the first (A, SEQ ID NOs: 55 and 56), third (B, SEQ ID NOs: 57 and 58) and last (C, SEQ ID NOs: 59 and 60) exon-intron junctions. […]

[1] = system: pro-inflammatory genes A20, CCL20, IL6, IL8, CXCL2, JUNB and IEX1; test: mRNA levels of pro-inflammatory genes under basal conditions, HeLa, RT-qPCR; type: cell-based, human; conditions: HeLa cells, 2 hours, 50 μM SPI
Method: Cell culture—HEK293T, HeLa, MCF7, Jurkat and mouse embryonic fibroblasts (MEFs) cells were grown and maintained in Dulbecco's modified Eagle's medium supplemented with 10% fetal calf serum (Gibco) and 1% penicillin-streptomycin. To avoid NF-κB activity, HeLa cells were kept from reaching confluence and re-plated no more than 10 times following initial thawing. To induce NF-κB activity, cells were treated with […] recombinant human TNF-α (Peprotech) for the indicated times. STHdh Q111 and STHdh Q7 striatal cell lines (Coriell Institute for Medical Research) were grown in Dulbecco's modified Eagle's medium supplemented with 10% fetal calf serum (Gibco), 1% penicillin-streptomycin and 0.4 mg/ml G418 at 33° C. The cells were re-plated no more than 5-6 times, as recommended.
RNA analysis—Total RNA was extracted using Tri-reagent (Bio-Lab Chemicals) and Direct-Zol™ RNA MiniPrep kit (Zymo Research). Following, cDNA was synthesized from […] of total RNA using a High-Capacity cDNA Reverse Transcription Kit (ABI, Thermo Fisher Scientific). cDNA samples were analyzed by quantitative PCR (qPCR) in a ViiA 7 Real-Time PCR System using Fast qPCRBIO SYBR Green Mix (PCR Biosystems).
Thus, a subset of Spt5-responsive pro-inflammatory genes from the aforementioned studies and from others (Aida et al., 2006; Fujita et al., 2009), namely A20, CCL20, IL6, IL8, CXCL2, JUNB and IEX1, were selected and the effect of the identified SPIs on their expression under basal conditions and in response to NF-κB activation was tested (FIGS. 2A-C and 3A-C). Specifically, for analyzing expression under basal conditions, Hela cells were treated with vehicle (DMSO) or SPI for 2 hours and following RNA was extracted and analyzed by RT-qPCR.

Work on `Nc1ccccc1SC(CC(=O)c1cccs1)c1cccs1` (centres unmarked) [SPI-18] yielded an IC50 (TNFα-induced IL6 mRNA) of 39 µM.
In the case of `COc1ccc(C=CC(=O)c2cc(O)ccc2O)cc1` [SPI-21], the “Up-regulation of pro-inflammatory genes under basal conditions (i.e. inhibiting proximal promoter pausing of pro-inflammatory genes induced by Spt5)” value [1] is reported as “++ (++ >3)”.
